Results published in ChEMBL document CHEMBL5634109, “Synthesis and mechanism of action of new purine derivatives against triple negative breast cancer” (Eur J Med Chem, 2023).
Calls of active or inactive are those of the source. No cut-off for these calls is given here.

Key:
[1] = target: Cyclin-dependent kinase 7 (Homo sapiens, UniProt P50613); assay: Inhibition of CDK7 (unknown origin)
Cell membrane = assay: Induction of mitochondrial membrane potential loss in human MDA-MB-231 cells assessed as increase in fluorescence intensity at 40 uM incubated for 48 hrs by TMRM dye based flow cytometry analysis (reference value: 97.5%)
MCF7 = assay: Antiproliferative activity against human MCF7 cells assessed as reduction in cell viability measured for 48 hrs by MTT assay; assay type: functional, cell-based; settings: MCF7, 48 h
[2] = Antiproliferative activity against human HEK293 cells assessed as reduction in cell viability measured for 48 hrs by MTT assay; assay type: toxicity, cell-based
MDA-MB-231 [3] = assay: Antitumor activity against human MDA-MB-231 cells xenografted in nude mouse assessed as inhibition of proliferation of tumor cells at 10 mg/kg, ip measured for 3 days by H and E staining based analysis; assay type: functional, organism-based; settings: time 3.0 day
[4] = Inhibition of PI3K/AKT/mTOR signaling pathway in human MDA-MB-231 cells assessed as decrease in AKT phosphorylation at 1 to 4 uM incubated for 6 hrs by Western blot analysis; assay type: cell-based; settings: dose 1-4 µM
MDA-MB-231 [5] = assay: Antiproliferative activity against human MDA-MB-231 cells assessed as reduction in cell viability measured for 48 hrs by MTT assay; assay type: functional, cell-based; settings: MDA-MB-231, 48 h
HUVEC = assay: Antiangiogenesis activity in HUVEC cells at 0.03 to 0.3 uM incubated for 12 hrs by microscopic analysis; assay type: functional, cell-based; settings: Homo sapiens, dose 0.03-0.3 µM
PC-3 = assay: Antiproliferative activity against human PC-3 cells assessed as reduction in cell viability measured for 48 hrs by MTT assay; assay type: functional, cell-based; settings: PC-3, 48 h
K562 = assay: Antiproliferative activity against human K562 cells assessed as reduction in cell viability measured for 48 hrs by MTT assay; assay type: functional, cell-based; settings: K562, 48 h
[6] = Hepatotoxicity in nude mouse at 10 mg/kg, ip measured for 3 days; assay type: toxicity, organism-based; settings: in vivo, 72 h, time 3 day
HT-29 = assay: Antiproliferative activity against human HT-29 cells assessed as reduction in cell viability measured for 48 hrs by MTT assay; assay type: functional, cell-based; settings: HT-29, 48 h
[7] = target: Dual specificity protein kinase CLK1 (Homo sapiens, UniProt P49759); assay: Inhibition of CLK1 (unknown origin)
NCI-H1299 = assay: Antiproliferative activity against human NCI-H1299 cells assessed as reduction in cell viability measured for 48 hrs by MTT assay; assay type: functional, cell-based; settings: NCI-H1299, 48 h

Sequence of Dual specificity protein kinase CLK1 (P49759 whole entry): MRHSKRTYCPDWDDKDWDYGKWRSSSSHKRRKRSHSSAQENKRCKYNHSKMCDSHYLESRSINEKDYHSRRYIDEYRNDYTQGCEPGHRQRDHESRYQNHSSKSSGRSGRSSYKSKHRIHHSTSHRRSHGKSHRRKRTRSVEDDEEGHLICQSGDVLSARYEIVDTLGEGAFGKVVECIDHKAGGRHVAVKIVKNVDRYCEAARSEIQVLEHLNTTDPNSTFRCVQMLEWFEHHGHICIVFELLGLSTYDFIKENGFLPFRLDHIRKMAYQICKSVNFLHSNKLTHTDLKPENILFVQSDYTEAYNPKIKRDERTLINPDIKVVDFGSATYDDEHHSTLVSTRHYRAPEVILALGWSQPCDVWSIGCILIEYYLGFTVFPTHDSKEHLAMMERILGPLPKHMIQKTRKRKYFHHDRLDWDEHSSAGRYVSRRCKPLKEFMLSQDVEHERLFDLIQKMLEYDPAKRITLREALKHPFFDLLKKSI
Sequence of Cyclin-dependent kinase 7 (P50613 whole entry): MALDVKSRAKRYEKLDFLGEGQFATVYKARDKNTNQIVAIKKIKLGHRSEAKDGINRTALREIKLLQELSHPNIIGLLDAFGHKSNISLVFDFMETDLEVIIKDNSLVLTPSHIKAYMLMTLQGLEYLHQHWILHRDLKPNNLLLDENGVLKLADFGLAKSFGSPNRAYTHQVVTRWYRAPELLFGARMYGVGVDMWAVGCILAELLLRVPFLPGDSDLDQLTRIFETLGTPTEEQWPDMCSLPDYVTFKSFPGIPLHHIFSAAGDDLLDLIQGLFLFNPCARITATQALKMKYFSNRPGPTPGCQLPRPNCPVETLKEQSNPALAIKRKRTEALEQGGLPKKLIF

OCCN1CCC(C2CCN(c3nc(NCc4ccc(F)c(Cl)c4)c4ncn(CC5CC5)c4n3)CC2)CC1
IC50 [1]: 2320 nM | Activity (Cell membrane): 24.5% | IC50 (MCF7): 430 nM | IC50 at 48 h [2]: 4.32 µM | Activity (MDA-MB-231 [3]): Active | inhibition [4]: Active | IC50 (MDA-MB-231 [5]): 3.15 µM | Activity (HUVEC): Active | IC50 (PC-3): 2430 nM | IC50 (K562): 320 nM | Activity [6]: Non-Toxic | IC50 (HT-29): 4.16 µM | IC50 [7]: 2970 nM | IC50 (NCI-H1299): 4.28 µM
